Measured values published in EP0472392A2, “Optically active triazole derivatives and compositions” (priority 1990, dated 1992).
Values after ≈ are worked out from the molar mass of the structure shown. “Also recorded” adds a separate entry of the source. Where two headings read alike, the source gives them in different places.

How the values were obtained:
[1] = system: Aspergillus fumigatus IFM 4942; test: Measurement of Minimum Inhibitory Concentration (MIC), agar dilution; format: cell-based; conditions: SDA agar plates, 30°C
Procedure: (§1) Measurement of Minimum Inhibitory Concentration (MIC)
(§2) Yeast-type fungi were cultured in Sabouraud dextrose broth (SDB, Difco) at 30°C for 24 hours, and 10⁵ cell/ml suspension for inoculation were prepared by diluting this with sterile physiological saline. In the case of filamentous fungi, 3 to 5 ml sterile physiological saline containing 0.05% (w/v) Tween 80 were added to mature Sabouraud dextrose agar culture medium (SDA, Difco) slant cultures (cultured for 2 to 3 weeks) in which conidia had formed abundantly, and the conidia were separated using an inoculating loop (Nunc Inc.). The conidial suspensions obtained were collected using a sterile pipette, and, after filtration through a double layer of sterile gauze to remove mycelial aggregates and agar fragments, were made into suspensions for inoculation by dilution of 10⁵ conidia/ml with sterile physiological saline. Meanwhile, as regards the drug-containing agar plates, a drug concentration of 0.005 to 10 mg/ml was prepared using dimethyl sulfoxide (DMSO, Wako Junyaku), and, by adding 99 parts of SDA to 1 part of this drug solution, two-fold serial dilution agar media of final dilutions 0.05 to 100 µg/ml were prepared. The fungal suspensions for inoculation prepared by the above method were inoculated onto these agar plates using a MIT-P microplanter (Sakuma Seisakusho).

[2] = system: Candida albicans IFM 40009; test: as above; format: cell-based; conditions: 30°C, 48 hours
Procedure: as §1, §2

[3] = system: Candida glabrata TIMM 1064; test: as above; format: cell-based; conditions: SDA agar plates, 30°C
Procedure: as §1, §2

[4] = system: Candida tropicalis TIMM 0313; test: as above; format: cell-based; conditions: SDA agar plates, 30°C
Procedure: as §1, §2

[5] = system: Cryptococcus neoformans TIMM 0362; test: as above; format: cell-based; conditions: SDA agar plates, 30°C
Procedure: as §1, §2

[6] = system: Trichophyton mentagrophytes TIMM 1188; test: as above; format: cell-based; conditions: SDA agar plates, 30°C
Procedure: as §1, §2

[7] = system: Aspergillus fumigatus IFM 4942; test: Effectiveness in treatment of in vivo infections (survival of infected mice); conditions: IFM4942; Aspergillus fumigatus IFM 4942 i.v. infection, male ICR mice; dosed orally 5x (once daily for 5 days); survival after 2 weeks
Procedure: (§3) Measurement of Effectiveness in Treatment of In vivo Infections Using 10 animals per group, male ICR mice (body weight 18 to 20 g) were infected by intravenous injection of the test fungi as an aqueous suspension. The test compounds were given orally once 1 hour after infection, or once daily for 5 days starting from 1 hour after infection. After 2 weeks, the number of animals surviving was counted, and the dosage at which 50% of the animals survive (ED₅₀: mg/kg) was calculated using the Litchfield-Wilcoxon method.

[8] = system: Candida albicans IFM 40009; test: as above; conditions: IFM40009, Candida albicans IFM 40009 i.v. infection, male ICR mice, survival after 2 weeks
Procedure: as §3

[9] = system: Cryptococcus neoformans TIMM 0362; test: as above; conditions: TIMM0362; Cryptococcus neoformans TIMM 0362 i.v. infection, male ICR mice; dosed orally 1x (1 hour after infection); survival after 2 weeks
Procedure: as §3

[10] = Repeated oral toxicity testing in monkeys; format: in vivo; conditions: for safe dosage: under these test conditions
Procedure: Compound A was given orally to monkeys every day for 28 days at dosages of 1, 3, 10 and 30 mg/kg/day, and its toxicity was studied.
As a result, at dosages of 3 mg/kg/day or more, a decrease in serum cortisol, hyperplasia and increase in lipid droplets in the zona fasciculata in the adrenal cortex, and atrophy of the seminiferous tubules of the testes were observed; at the dosage of 30 mg/kg/day, prolongation of the QTc interval in the electrocardiogram (QT period corrected for heart rate) was also observed. Under these test conditions, it was considered that 1 mg/kg/day was a safe dosage.
Compound (+)-I was given orally to monkeys every day for 28 days at dosages of 1, 3, 10 and 30 mg/kg/day, and its toxicity studied.
Under these test conditions, it was considered that 30 mg/kg/day was safe dosage.

[11] = Variation in the plasma concentrations in monkeys of the toxicity study; format: in vivo; conditions: repeated daily oral dosing for 28 days
[12] = Aspergillus fumigatus, IFM4942, 48 h, read-out: MIC
[13] = IFM40009, SDA agar plates, read-out: MIC
[14] = Nakaseomyces glabratus, TIMM1064, 48 h, read-out: MIC
[15] = Candida tropicalis, TIMM0313, 48 h, read-out: MIC
[16] = Cryptococcus neoformans, TIMM0362, 48 h, read-out: MIC
[17] = Trichophyton mentagrophytes, TIMM1188, 48 h, read-out: MIC
[18] = dosed orally 5x (once daily for 5 days)
[19] = every day for 28 days, 1, 3, 10 and 30 mg/kg/day
[20] = dosed orally 1x (1 hour after infection)
[21] = every day for 28 days, up to 30 mg/kg/day

Structure (SMILES)	MIC [1, 12] [µg/mL]	MIC [2, 13] [µg/mL]	MIC [3, 14] [µg/mL]	MIC [4, 15] [µg/mL]	MIC [5, 16] [µg/mL]	MIC [6, 17] [µg/mL]	ED50 [7] [mg/kg]	ED50 [8, 18] [mg/kg]	ED50 [9] [mg/kg]	safe dosage ([10]; every day for 28 days) [mg/kg/day]	variation in the plasma concentrations with time (accumulation) [11]	ED50 [8, 20] [mg/kg]	also measured
OC(Cn1cncn1)(Cn1cnc(/C=C/c2ccc(OCC(F)(F)C(F)F)cc2)n1)c1ccc(F)cc1F (racemic) [compound A, (±)-2-(2,4-difluorophenyl)-1-[3-[(E)-4-(2,2,3,3-tetrafluoropropoxy)styryl]-1H-1,2,4-triazol-1-yl]-3-(1H-1,2,4-triazol-1-yl)propan-2-ol]	12.5 (≈ 23.2 µM)	12.5 (≈ 23.2 µM)	1.56 (≈ 2.9 µM)	12.5 (≈ 23.2 µM)	0.78 (≈ 1.45 µM)	0.39 (≈ 0.724 µM)	53.6	1.7	43.5	1	accumulates; also recorded: increased day-by day	–	dosage at which a decrease in serum cortisol was observed [10, 19]: ≥ 3 mg/kg/day; dosage at which atrophy of the seminiferous tubules of the testes was observed [10, 19]: ≥ 3 mg/kg/day; dosage at which hyperplasia and increase in lipid droplets in the zona fasciculata in the adrenal cortex was observed ([10]; every day for 28 days, 1, 3, 10 and 30 mg/kg/day, only slight for compound (+)-I): ≥ 3 mg/kg/day
OC(Cn1cncn1)(Cn1cncn1)c1ccc(F)cc1F [FLUCONAZOLE, 2-(2,4-difluorophenyl)-1,3-bis(1H-1,2,4-triazol-1-yl)-propan-2-ol]	> 100	> 100	100 (≈ 327 µM)	> 100	50 (≈ 163 µM)	25 (≈ 81.6 µM)	57.9	3.6	> 100	–	–	> 30	–
OC(Cn1cncn1)(Cn1cnc(/C=C/c2ccc(OCC(F)(F)C(F)F)cc2)n1)c1ccc(F)cc1F (single isomer, unassigned; (+)) [Compound (+)-I, (+)-2-(2,4-difluorophenyl)-1-[3-[(E)-4-(2,2,3,3-tetrafluoropropoxy)styryl]-1H-1,2,4-triazol-1-yl]-3-(1H-1,2,4-triazol-1-yl)propan-2-ol]	–	12.5 (≈ 23.2 µM)	–	–	–	–	39.8	1	19.7	30	no day-by day increase in the plasma concentrations; also recorded: does not display accumulation	2.6	MIC ([1]; 48 hours, listed as COMP. (+)I): 6.25 µg/mL (≈ 11.6 µM); MIC ([3]; 48 hours, listed as COMP. (+)I): 0.78 µg/mL (≈ 1.45 µM); MIC ([4]; 48 hours, listed as COMP. (+)I): 12.5 µg/mL (≈ 23.2 µM); MIC ([5]; 48 hours, listed as COMP. (+)I): 0.39 µg/mL (≈ 0.724 µM); MIC ([6]; 48 hours, listed as COMP. (+)I): 0.10 µg/mL (≈ 0.186 µM); testicular toxicity (atrophy of the seminiferous tubules), finding in words ([10]; even at a dosage of 30 mg/kg/day): did not display; electrocardiogram / cardiotoxicity (prolongation of the QTc interval), finding in words [10, 21]: no abnormalities in the electrocardiogram were seen; also recorded: did not display cardiotoxicity (prolongation of the QTc interval); serum cortisol level (finding in words) [10, 21]: no decrease in the serum cortisol level; also recorded: did not display
OC(Cn1cncn1)(Cn1cnc(/C=C/c2ccc(OCC(F)(F)C(F)F)cc2)n1)c1ccc(F)cc1F (single isomer, unassigned; (-)) [Compound (-)-I, (-)-2-(2,4-difluorophenyl)-1-[3-[(E)-4-(2,2,3,3-tetrafluoropropoxy)styryl]-1H-1,2,4-triazol-1-yl]-3-(1H-1,2,4-triazol-1-yl)propan-2-ol]	–	–	–	–	–	–	–	–	–	–	–	–	MIC ([1]; 48 hours, listed as COMP. (-)I): >100 µg/mL; MIC ([2]; SDA agar plates): 12.5 µg/mL (≈ 23.2 µM); MIC ([3]; 48 hours, listed as COMP. (-)I): >100 µg/mL; MIC ([4]; 48 hours, listed as COMP. (-)I): >100 µg/mL; MIC ([5]; 48 hours, listed as COMP. (-)I): >100 µg/mL; MIC ([6]; 48 hours, listed as COMP. (-)I): 50 µg/mL (≈ 92.9 µM)
